A short description of data set [1]: Compound stability in rat plasma, HPLC. Format: in vitro ADME. The conditions noted are these: 37 °C. As to the method:
Blood was collected from SD rats (200–250 g, male and female, Animal Experimental Center of Yanbian University) into heparin tubes, and supernatant plasma was collected after centrifugation.
A certain amount of 9a and 12a1 were accurately weighed and mixed with rat plasma. After incubation at 37 ℃ for 0, 6, 12, 24 and 36 h, the plasma samples were treated with methanol and analyzed by HPLC to determine their stability in plasma.
A HITACHI Primaide HPLC liquid chromatography system was equipped and used for all analyses. Chromatographic separation was performed on a Welch Ultimate XB-C18 column (3.9 mm × 150 mm, 5 μm; Welch, China). The analytes were eluted using a gradient method with a flow rate of 1 mL/min. Mobile phase A was Ultra pure water, and mobile phase B was methanol according to the following gradient: (1) The gradient elution conditions of 9a: 0 to 8 min, 55% to 67% B; 8.1 to 15 min, 67% to 90% B; 15.1 to 25 min, 55% B. (2) The gradient elution conditions of 12a1: 0 to 9 min, 55% to 65% B; 9.1 to 12 min, 65% to 75% B; 12.1 to 15 min, 75% to 85% B; 15.1 to 20 min, 90% B; 20.1 to 30 min, 55% B. The injection volume was 3 μL. The column temperature was set at 40 °C. […]
1.6. Plasma stability assessment
Prepare plasma:blood was collected from SD rats (200-250g, male and female, Animal Experimental Center of Yanbian University) into heparin tubes, and supernatant plasma was collected after centrifugation.
A certain amount of 9a and 12a1 were accurately weighed and mixed with rat plasma.
After incubation at 37℃ for 0 h, 6 h, 12 h, 24 h and 36 h, the plasma samples were treated with methanol and analyzed by HPLC to determine their stability in plasma.
Analytical instrument and conditions:
A HITACHI Primaide HPLC liquid chromatography system equipped was used for all analyses. Chromatographic separation was performed on a Welch Ultimate XB-C18 column (3.9 mm × 150 mm, 5 μm; Welch, China). The analytes were eluted using a gradient method with a flow rate of 1 mL/min. Mobile phase A was Ultra pure water, and mobile phase B was methanol according to the following gradient: (1). The gradient elution conditions of 9a: 0 to 8 minutes, 55% to 67% B; 8.1 to 15 minutes, 67% to 90% B; 15.1 to 25 minutes, 55% B. (2). The gradient elution conditions of […]

For a further data set, the system named is MCF-7 breast cancer cell. In words: MTT cell growth inhibition assay, MCF-7 breast cancer cells. Format: cell-based. The conditions noted are these: Homo sapiens, MCF7, mean ± SD of three experiments. An excerpt:
(§1) Initially, we designed and synthesised seven compounds—9a and 12a1–12a6—and evaluated the anticancer activity and aqueous solubility. We evaluated the cytotoxic effects of these stilbene nitrile analogues against a panel of four human cancer cell lines (HCT-116, BEL-7402, MCF-7 and AGS) and two human non-cancerous normal cell lines (L-02 and MCF-10A), using CA-4 as a control. The compounds were screened for aqueous solubility in 0.01 M PBS using a high throughput UV method. […] It is possible that the size of the nitrogen heterocycle had little effect on the activity of these compounds. […] The aqueous solubility of all the compounds 12a1–12a6 was higher than that of 9a, particularly that of 12a1 and 12a2 containing piperazine rings. […] Of the six compounds with improved aqueous solubility, 12a1 had the best activity.
(§2) All human cell lines were used in this study. AGS gastric cancer cell, BEL-7402 liver cancer cell, HCT-116 colorectal cancer cell, L-02 normal liver cell, MCF-7 breast cancer cell, and MCF-10A normal breast cell were initially purchased from American Type Culture Collection (ATCC, Manassas, VA, USA). RPMI-1640 media, DMEM and FBS, were provided by Gibco Company. The cells were maintained in DMEM or RPMI-1640, supplemented with 10% FBS, 100 IU/mL penicillin and […] streptomycin, and at 37 °C in a humidified atmosphere containing 5% CO2.
(§3) The experiment was carried out according to the method of reference.

Data set [2] is described as follows: Drug-plasma protein binding rate, equilibrium dialysis. The conditions noted are these: rat, equilibrium dialysis vs phosphate buffer pH 7.4, 4 °C. It counts as in vitro ADME. As for the experimental part: Compounds at 90 μM concentration were mixed with rat plasma, and the mixtures were subjected to equilibrium dialysis versus phosphate buffer (pH 7.4) at 4 °C for 48 h. The dialysis membrane of molecular weight cut off 1 kDa was used. Dialysis experiments were done in triplicate. On completion of the dialysis period, absorb a certain amount of buffer and plasma, respectively, and add methanol to treat the sample. Dialysis samples were analysed by HPLC. The plasma protein binding rate of the compound was calculated as follows: protein binding rate/% = (plasma drug concentration inside dialysis bag—dialysate drug concentration outside dialysis bag)/plasma drug concentration inside dialysis bag × 100%. […]
injection volume was 3 μL. The column temperature was set at 40℃.
1.7. The drug-plasma protein binding rate assessment
Compound 12a1 at 90 μM concentration were mixed with rats plasma. The mixtures were subjected to equilibrium dialysis versus phosphate buffer pH 7.4 buffer at 4℃ for 48 hour using equilibrium dialysis. The dialysis membrane of molecular weight cutoff 1 kDa was used. […] Dialysis samples were analyzed by HPLC, The plasma protein binding rate of the compound was calculated as follows: protein binding rate ∕ % = (plasma drug concentration inside dialysis bag − dialysate drug concentration outside dialysis bag) ∕ plasma drug concentration inside dialysis bag × […]
Background: In equilibrium dialysis only unbound substance equilibrates across the membrane.

A further data set deals with AGS gastric cancer cell. The experiment in a line: MTT cell growth inhibition assay, AGS gastric cancer cells. Format: cell-based. Conditions: Homo sapiens, mean ± SD of three experiments.
Source text: as §1, §2, §3

The test system of data set [3] is MCF-10A normal breast cell. The experiment in a line: MTT cell growth inhibition assay, MCF-10A normal breast cells. It counts as cell-based. The conditions noted are these: Homo sapiens, mean ± SD of three experiments, read-out: IC50 MCF-10A Normal Breast Epithelial Cells.
Source text: as §1, §2, §3

The subject of a further data set is L-02 normal liver cell. In words: MTT cell growth inhibition assay, L-02 normal liver cells. Format: cell-based. The conditions noted are these: Homo sapiens, mean ± SD of three experiments.
Source text: as §1, §2, §3

With `COc1cc(/C(C#N)=C/c2ccc(NC(=O)CN3CCN(C)CC3)cc2)cc(OC)c1OC` [12a1], the “Decrease of HPLC peak area in rat plasma” value in data set [1] (within 36 h, UV 294 nm) is recorded as around 22%. Further, the “Plasma stability (in words)” value in data set [1] (rat plasma, 24 h) is reported as “retained plasma stability over 24 h”. For the same molecule, the IC50 (in general, the concentration needed to halve the response being measured) with MCF-7 breast cancer cell was 16.1 ± 2.7 µM; with AGS gastric cancer cell it was 10.7 ± 0.52 µM; in data set [3] it was 20.9 ± 0.78 µM; in the data set on L-02 normal liver cell it was 32.7 ± 1.44 µM. The fraction unbound (usually free concentration divided by total concentration) at 48 h, 90 μM in data set [2] is 0.393.
